Data: PubChem BioAssay (NCI)
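Cultured in 96-well plates, cells were exposed to test compound for 48 hours across five concentrations. GI50 = concentration required for 50% inhibition of growth. TGI marks complete inhibition of growth.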

Assays:
Assay in all cases: inhibition of tumour cell growth, NCI panel, 48 h
[1] = test system: 786-0 renal
[2] = test system: A498 renal
[3] = test system: A549 NSCLC
[4] = test system: ACHN renal
[5] = test system: BT-549 breast
[6] = test system: CAKI-1 renal
[7] = test system: CCRF-CEM leukemia
[8] = test system: COLO 205 colon
[9] = test system: DU-145 prostate
[10] = test system: EKVX NSCLC
[11] = test system: HCC-2998 colon
[12] = test system: HCT-116 colon
[13] = test system: HCT-15 colon
[14] = test system: HL-60(TB) leukemia
[15] = test system: HOP-62 NSCLC
[16] = test system: HOP-92 NSCLC
[17] = test system: HS 578T breast
[18] = test system: HT29 colon
[19] = test system: IGROV1 ovarian
[20] = test system: K-562 leukemia
[21] = test system: KM12 colon
[22] = test system: LOX IMVI melanoma
[23] = test system: M14 melanoma
[24] = test system: MALME-3M melanoma
[25] = test system: MCF7 breast
[26] = test system: MDA-MB-231 breast
[27] = test system: MDA-MB-435
[28] = test system: MOLT-4 leukemia
[29] = test system: NCI-H226 lung
[30] = test system: NCI-H460 lung
[31] = test system: NCI-H522 lung
[32] = test system: NCI/ADR-RES ovarian
[33] = test system: OVCAR-3 ovarian
[34] = test system: OVCAR-4 ovarian
[35] = test system: OVCAR-5 ovarian
[36] = test system: OVCAR-8 ovarian
[37] = test system: PC-3 prostate
[38] = test system: RPMI-8226 leukemia
[39] = test system: RXF 393 renal
[40] = test system: SF-268 CNS
[41] = test system: SF-295 CNS
[42] = test system: SF-539 CNS
[43] = test system: SK-MEL-2 melanoma
[44] = test system: SK-MEL-28 melanoma
[45] = test system: SK-MEL-5 melanoma
[46] = test system: SK-OV-3 ovarian
[47] = test system: SN12C renal
[48] = test system: SNB-19 CNS
[49] = test system: SNB-75 CNS
[50] = test system: SR leukemia
[51] = test system: SW-620 colon
[52] = test system: T-47D breast
[53] = test system: TK-10 renal
[54] = test system: U251 CNS
[55] = test system: UACC-257 melanoma
[56] = test system: UACC-62 melanoma
[57] = test system: UO-31 renal
[58] = test system: NCI-H23 lung

`COC(=O)N1c2ccc3c(nc(Cc4ccccc4)n3[C@H]3CCC[C@H](C(=O)O)C3)c2CC[C@@H]1C` showed a GI50 [1] of 5670 nM, a TGI [1] of over 100000 nM and a GI50 [2] of 12400 nM. The TGI [2] was 52700 nM, the GI50 [3] was 27600 nM and the TGI [3] was over 100000 nM. It also gave a GI50 [4] of 17200 nM, a TGI [4] of over 100000 nM and a GI50 [5] of 48500 nM. It also gave a TGI [5] of over 100000 nM, a GI50 [6] of 1810 nM and a TGI [6] of over 100000 nM. The GI50 [7] was 6550 nM, the TGI [7] was over 100000 nM and the GI50 [8] was 4950 nM. The TGI [8] was over 100000 nM, the GI50 [9] was 93600 nM and the TGI [9] was over 100000 nM. For the same compound, the GI50 [10] was 17900 nM, the TGI [10] was over 100000 nM and the GI50 [11] was 8360 nM. The TGI [11] was 27100 nM, the GI50 [12] was 17600 nM and the TGI [12] was over 100000 nM. For the same compound, the GI50 [13] was 16200 nM, the TGI [13] was over 100000 nM and the GI50 [14] was 3180 nM. The TGI [14] was over 100000 nM, the GI50 [15] was 11300 nM and the TGI [15] was over 100000 nM. The GI50 [16] was 1620 nM, the TGI [16] was 11800 nM and the GI50 [17] was 3250 nM. For the same compound, the TGI [17] was over 100000 nM, the GI50 [18] was 5440 nM and the TGI [18] was over 100000 nM. For the same compound, the GI50 [19] was 20800 nM, the TGI [19] was over 100000 nM and the GI50 [20] was 5030 nM. For the same compound, the TGI [20] was over 100000 nM, the GI50 [21] was 16400 nM and the TGI [21] was over 100000 nM. For the same compound, the GI50 [22] was 1030 nM, the TGI [22] was 30200 nM and the GI50 [23] was 5860 nM. For the same compound, the TGI [23] was over 100000 nM, the GI50 [24] was 6130 nM and the TGI [24] was over 100000 nM. It also gave a GI50 [25] of 115 nM, a TGI [25] of over 100000 nM and a GI50 [26] of 15800 nM. It also gave a TGI [26] of over 100000 nM, a GI50 [27] of 8590 nM and a TGI [27] of over 100000 nM. For the same compound, the GI50 [28] was 14300 nM, the TGI [28] was over 100000 nM and the GI50 [29] was 14100 nM. It also gave a TGI [29] of over 100000 nM, a GI50 [30] of 23400 nM and a TGI [30] of over 100000 nM. For the same compound, the GI50 [31] was 11300 nM, the TGI [31] was over 100000 nM and the GI50 [32] was 65200 nM. The TGI [32] was over 100000 nM, the GI50 [33] was 13300 nM and the TGI [33] was over 100000 nM. It also gave a GI50 [34] of 6840 nM, a TGI [34] of over 100000 nM and a GI50 [35] of 30900 nM. The TGI [35] was over 100000 nM, the GI50 [36] was 28200 nM and the TGI [36] was over 100000 nM. For the same compound, the GI50 [37] was 5680 nM, the TGI [37] was over 100000 nM and the GI50 [38] was 3840 nM. The TGI [38] was 80900 nM, the GI50 [39] was 12200 nM and the TGI [39] was 91100 nM. The GI50 [40] was 27700 nM, the TGI [40] was over 100000 nM and the GI50 [41] was 11700 nM. It also gave a TGI [41] of over 100000 nM, a GI50 [42] of 15700 nM and a TGI [42] of over 100000 nM. It also gave a GI50 [43] of 34300 nM, a TGI [43] of over 100000 nM and a GI50 [44] of 13200 nM. It also gave a TGI [44] of over 100000 nM, a GI50 [45] of 10200 nM and a TGI [45] of over 100000 nM. The GI50 [46] was 16900 nM, the TGI [46] was over 100000 nM and the GI50 [47] was 17300 nM. It also gave a TGI [47] of over 100000 nM, a GI50 [48] of 12600 nM and a TGI [48] of over 100000 nM. The GI50 [49] was 431 nM, the TGI [49] was over 100000 nM and the GI50 [50] was 13800 nM. It also gave a TGI [50] of over 100000 nM, a GI50 [51] of 46400 nM and a TGI [51] of over 100000 nM. For the same compound, the GI50 [52] was 3170 nM, the TGI [52] was over 100000 nM and the GI50 [53] was 5700 nM. It also gave a TGI [53] of over 100000 nM, a GI50 [54] of 17100 nM and a TGI [54] of over 100000 nM. The GI50 [55] was 14600 nM, the TGI [55] was over 100000 nM and the GI50 [56] was 2080 nM. For the same compound, the TGI [56] was over 100000 nM, the GI50 [57] was 2870 nM and the TGI [57] was over 100000 nM.
In the case of `CCCCCC/C=C\CCCCCCCCCc1cc(O)cc(OC)c1O`, the GI50 [1] is reported as 316 nM, the TGI [1] is reported as 1570 nM and the GI50 [2] is reported as 330 nM. The TGI [2] was 2070 nM, the GI50 [3] was 406 nM and the TGI [3] was 14600 nM. For the same compound, the GI50 [4] was 318 nM, the TGI [4] was 1210 nM and the GI50 [5] was 375 nM. The TGI [5] was 1450 nM, the GI50 [6] was 497 nM and the TGI [6] was 1820 nM. For the same compound, the GI50 [7] was 219 nM, the TGI [7] was 1290 nM and the GI50 [9] was 575 nM. It also gave a TGI [9] of 15200 nM, a GI50 [10] of 335 nM and a TGI [10] of 1740 nM. It also gave a GI50 [11] of 633 nM, a TGI [11] of 4340 nM and a GI50 [12] of 330 nM. The TGI [12] was 1250 nM, the GI50 [13] was 285 nM and the TGI [13] was 1320 nM. For the same compound, the GI50 [14] was 272 nM, the TGI [14] was 717 nM and the GI50 [16] was 234 nM. For the same compound, the TGI [16] was 767 nM, the GI50 [17] was 599 nM and the TGI [17] was 5180 nM. For the same compound, the GI50 [18] was 353 nM, the TGI [18] was 6930 nM and the GI50 [19] was 433 nM. The TGI [19] was 1640 nM, the GI50 [20] was 298 nM and the TGI [20] was 2080 nM. For the same compound, the GI50 [21] was 388 nM, the TGI [21] was 2300 nM and the GI50 [22] was 339 nM. For the same compound, the TGI [22] was 1210 nM, the GI50 [23] was 403 nM and the TGI [23] was 3650 nM. It also gave a GI50 [24] of 444 nM, a TGI [24] of 2140 nM and a GI50 [25] of 292 nM. The TGI [25] was 2490 nM, the GI50 [26] was 308 nM and the TGI [26] was 978 nM. It also gave a GI50 [27] of 363 nM, a TGI [27] of 1960 nM and a GI50 [28] of 333 nM. For the same compound, the TGI [28] was 1860 nM, the GI50 [29] was 370 nM and the TGI [29] was 1490 nM. The GI50 [58] was 348 nM, the TGI [58] was 1290 nM and the GI50 [30] was 323 nM. For the same compound, the TGI [30] was 10100 nM, the GI50 [31] was 321 nM and the TGI [31] was 1220 nM. It also gave a GI50 [32] of 311 nM, a TGI [32] of 1270 nM and a GI50 [33] of 401 nM. It also gave a TGI [33] of 1430 nM, a GI50 [34] of 389 nM and a TGI [34] of 1690 nM. For the same compound, the GI50 [35] was 402 nM, the TGI [35] was 2410 nM and the GI50 [36] was 307 nM. For the same compound, the TGI [36] was 6500 nM, the GI50 [37] was 308 nM and the TGI [37] was 1540 nM. For the same compound, the GI50 [38] was 219 nM, the GI50 [39] was 320 nM and the TGI [39] was 1380 nM. The GI50 [40] was 441 nM, the TGI [40] was 1690 nM and the GI50 [41] was 304 nM. The TGI [41] was 1370 nM, the GI50 [42] was 377 nM and the TGI [42] was 1510 nM. For the same compound, the GI50 [43] was 494 nM, the TGI [43] was 2410 nM and the GI50 [44] was 653 nM. The TGI [44] was 2340 nM, the GI50 [45] was 329 nM and the TGI [45] was 1180 nM. For the same compound, the GI50 [46] was 402 nM, the TGI [46] was 11600 nM and the GI50 [47] was 310 nM. It also gave a TGI [47] of 1500 nM, a GI50 [48] of 347 nM and a TGI [48] of 10300 nM. It also gave a GI50 [49] of 317 nM, a TGI [49] of 1440 nM and a GI50 [50] of 344 nM. It also gave a TGI [50] of 3260 nM, a GI50 [51] of 371 nM and a TGI [51] of 1810 nM. For the same compound, the GI50 [52] was 349 nM, the TGI [52] was 1930 nM and the GI50 [53] was 664 nM. The TGI [53] was 2650 nM, the GI50 [55] was 474 nM and the TGI [55] was 2920 nM. It also gave a GI50 [56] of 396 nM, a TGI [56] of 1950 nM and a GI50 [57] of 321 nM. For the same compound, the TGI [57] was 1220 nM.
